Assay results reported in paper PMC10987949, “Inhibition of HIV-1 release by ADAM metalloproteinase inhibitors” (Frontiers in Microbiology, 2024).

Key:
[1] = target: T1, recombinant HIV-1 protease (Human immunodeficiency virus type 1 group M subtype B, UniProt P04585); test: HIV-1 protease fluorogenic substrate cleavage; type: biochemical; conditions: 100nM saquinavir or nelfinavir; MMP inhibitors up to 10uM
T1 construct: recombinant HIV-1 protease; purchased Sigma-Aldrich SRP2151
Protocol: HIV-1 protease enzymatic activity was assayed in black 96-well plates at room temperature using a Synergy_h1 fluorescent plate reader with 340 nm excitation and 490 nm emission wavelengths (BioTek). Each enzymatic reaction consisted of a mixture of 100 ng of recombinant HIV-1 protease (Sigma-Aldrich catalog SRP2151), 5 μM concentration of a fluorogenic substrate Arg-Glu(EDANS)-[…]DABCYL)-Arg (Sigma-aldrich catalog H6660), and various concentrations of inhibitor compounds in 100 μL of assay buffer (0.15 M sodium chloride, 1.0 mM EDTA, 1.0 mM DTT, 0.1 M sodium acetate, pH 5.0). The fluorescence of the cleavage reaction was continuously read at every 30 s for a total of 40 min.

[2] = test system: CD62L shedding; test: Soluble CD62L ELISA, anti-CD3/PHA stimulated PBMC or CD4 T cells; type: cell-based, human
Protocol: PBMC from de-identified healthy donors were obtained with informed consent from the Department of Transfusion Medicine, National Institutes of Health under Biological reagent Registry RD-14-IX-12 approved by NIH biological safety board. […] IL-2 was added at a final concentration of 20 U/mL. CD3 antibody okt3 was used at ~0.2 μg/mL final concentration. […] Supernatants were collected and assessed using either the CD62L or TNF-α Duo Set ELISA kit according to manufacturer’s instructions (R&D Systems, Inc.). The viability of cells treated with compounds was assessed by acridine orange / propidiom iodide (AO/PI Logosbio catalog F23001) staining using Luna-FL cell counter following the manufacture’s instruction.^2

[3] = test system: CD62L shedding; test: Soluble CD62L ELISA, unstimulated PBMC; type: cell-based, human; conditions: 10 μM compound, non-stimulated cells, ELISA
Protocol: PBMC from de-identified healthy donors were obtained with informed consent from the Department of Transfusion Medicine, National Institutes of Health under Biological reagent Registry RD-14-IX-12 approved by NIH biological safety board. CD8-depleted PBMCs, either stimulated or non-stimulated with 10 μg/mL phytohaemagglutinin (PHA) or anti-CD3 antibody (with or without conjugated beads), were plated at 2×10^6 cells/ml in 48 well plates in RPMI 1640 + 10%FBS (R10) to a final volume of 1 mL in each well. IL-2 was added at a final concentration of 20 U/mL. CD3 antibody okt3 was used at ~0.2 μg/mL final concentration. […] Supernatants were collected and assessed using either the CD62L or TNF-α Duo Set ELISA kit according to manufacturer's instructions (R&D Systems, Inc.). The viability of cells treated with compounds was assessed by acridine orange / propidiom iodide (AO/PI Logosbio catalog F23001) staining using Luna-FL cell counter following the manufacture's instruction.^2 […] Supplemental Figure 1. CD62L shedding from unstimulated PBMC. A) Soluble CD62L in the supernatant of unstimulated PBMC was measured By ELISA (R&D systems, Inc) after 24 hour treatment in the presence of 10 μM of […]), aminopeptidase (AP) protease inhibitors, respectively, or their untreated controls. Statistics were calculated using unpaired parametric student t-test between individual treatment and DMSO control. […] B) Viability of PBMC treated with 10-500 μM of MMP inhibitors for 24hours. […] Untreated DMSO AEBSF 3,4-Dichloroisocouman Granzyme B Inhibitor II Granzyme B Inhibitor IV Aprotinin […] 3 4 CD62L shedding from unstimulated PBMC Soluble CD62L (ng/ml) Inhibitor Class […] GI254023X 10 GI254023X 100 […] GI254023X 1000 GW280264X 10 GW280264X 100 […] GW280264X 1000 Marimastat 10 Marimastat 100 Marimastat 250 […]

[4] = test system: PBMC; test: PBMC viability (AO/PI staining); type: cell-based, human; conditions: for PBMC viability at 24hr post treatment: 10-500 μM of MMP inhibitors for 24hours
Protocol: PBMC from de-identified healthy donors were obtained with informed consent from the Department of Transfusion Medicine, National Institutes of Health under Biological reagent Registry RD-14-IX-12 approved by NIH biological safety board. CD8-depleted PBMCs, either stimulated or non-stimulated with 10 μg/mL phytohaemagglutinin (PHA) or anti-CD3 antibody (with or without conjugated beads), were plated at 2×10^6 cells/ml in 48 well plates in RPMI 1640 + 10%FBS (R10) to a final volume of 1 mL in each well. IL-2 was added at a final concentration of 20 U/mL. CD3 antibody okt3 was used at ~0.2 μg/mL final concentration. Compounds were prepared in appropriate solvents according to the manufacturer’s instructions, diluted to working concentrations using RPMI 1640 + 10%FBS (R10), and added to the cell cultures for 6–24 h for CD62L shedding, and 48 h for TNF-α release. Supernatants were collected and assessed using either the CD62L or TNF-α Duo Set ELISA kit according to manufacturer’s instructions (R&D Systems, Inc.). The viability of cells treated with compounds was assessed by acridine orange / propidiom iodide (AO/PI Logosbio catalog F23001) staining using Luna-FL cell counter following the manufacture’s instruction.^2

[5] = test system: HIV-1BAL; test: HIV-1BAL infection of CD8-depleted PBMC, FACS (intracellular p24, CD4, CD62L); type: cell-based; conditions: day 6; 0.5μM compounds
Source text: The use of healthy human peripheral blood mononuclear cells (PBMC) is approved by the Department of Transfusion Medicine at the Clinical Center of National Institutes of Health. The use of PBMC from HIV-1 infected individuals for the study was approved under protocol #02-I-0202 by the Institutional Review Board (IRB) of National Institutes of Health with written informed consent from all donors. Peripheral blood mononuclear cells (PBMCs) from anonymous healthy donors were isolated by Ficoll-Paque gradient, and cultured in RPMI 1640 supplemented with 10% FBS, 1%Penicillin/streptomycin, 1% HEPES buffer and 20 U/mL IL-2 (culture media); and stimulated with 0.2 μg/mL anti-CD3 antibody (okt3) for 2 days. CD8^+ T cells were depleted prior to infection using the Stemcell CD8 positive selection kit according to manufacturer’s instructions. CD8-depleted PBMCs were plated at 2×10^6 cells/ml in 48-well plates in 1 mL culture media with various inhibitors for 60 min prior to the addition of ~80 TCID50 HIV-1BAL or HIV-1LAI. Inhibitors were replenished during media change every 3 days. The infections were proceeded with or without inhibitors for 6 days or otherwise specified number of days and then analyzed by FACS staining using fluorescent labeled CD4-BV510, CD62L-APC and CD3-PEC7 antibodies (BD Biosciences). Cells were then washed and permeabilized with CytoFix/CytoPerm (BD Biosciences) solution before intracellular staining for HIV p24 antigen using FITC conjugated anti-p24 antibody clone KC57 (Beckman Coulter, catalog 6604665). All assays were performed with cell viabilities >80%. Replication competent HIV-1 viruses were obtained from the NIH AIDS Reagent Program^4, and expanded by infecting activated CD8-depleted PBMCs, and TCID50 was determined by p24 ELISA.

CC(C)(C)NC(=O)[C@@H]1C[C@@H]2CCCC[C@@H]2CN1C[C@@H](O)[C@H](Cc1ccccc1)NC(=O)[C@H](CC(N)=O)NC(=O)c1ccc2ccccc2n1 [saquinavir]
effect on HIV protease cleavage of fluorogenic substrate [1]: suppressed the substrate cleavage by HIV protease

GW280264X
Shedding inhibition Stimulated ([2]; 10 μM compound, stimulated cells, ELISA): +/− (<20)
Shedding inhibition Non-stim. [3]: +/− (<20)
PBMC viability at 24hr post treatment [4]: No significant decrease in the viability

CNC(=O)[C@@H](NC(=O)[C@H](CC(C)C)[C@H](O)C(=O)NO)C(C)(C)C [Marimastat]
inhibition at 10 µM ([2]; Homo sapiens, 10 μM compound, stimulated cells, ELISA): > 50%
inhibition at 10 µM ([3]; Homo sapiens, PBMC, read-out: Shedding inhibition Non-stim.): > 50%
PBMC viability at day 6 post infection with HIV-1 BAL ([4]; 50uM): significant loss in cell viability
PBMC viability at 24hr post treatment [4]: No significant decrease in the viability

Cc1c(O)cccc1C(=O)N[C@@H](CSc1ccccc1)[C@H](O)CN1C[C@H]2CCCC[C@H]2C[C@H]1C(=O)NC(C)(C)C [nelfinavir]
effect on HIV protease cleavage of fluorogenic substrate [1]: suppressed the substrate cleavage by HIV protease
effect on CD62L shedding from stimulated PBMC ([2]; titration of HAART compounds, concentration range tested): did not inhibit CD62L shedding
p24 staining in HIV-1BAL infection of PBMC [5]: no significant staining
PBMC viability at day 3 post treatment ([4]; 10uM): significant reduced cell viability
